These results are taken from patent publication US20180118722A1, “NOVEL ARYL-CYANOGUANIDINE COMPOUNDS” (Bayer Pharma Aktiengesellschaft, priority 2015, published 2018).

The target of assay [1] is T1, SMYD2 (Homo sapiens, UniProt Q9NRG4). In words: In Cell Western (ICW) cell-based assay for detection of SMYD2 methylation activity (p53K370me1) in SMYD2 overexpressing KYSE-150 cells. The arrangement: expressed in transfected cells; host or cells: KYSE-150 (human esophageal carcinoma, DSMZ ACC 375). The following applies: 72 h treatment, p53K370me1 signal, read-out: IC50 [mol/l] (ICW assay). From the text:
1.2 Cell-Based Assay for Detection of SMYD2 Methylation Activity
For the detection of SMYD2 cellular methylation activity an In Cell Western (ICW) assay was established. This assay allows rapid processing of multiple samples for SMYD2 methylation derived immunofluorescence signals, with normalization to cell number via the use of the nucleic acid dye DRAQS. KYSE-150 cells (human esophageal carcinoma cell line; DSMZ-German Collection of Microorganisms and Cell Cultures; No: ACC 375) have been stably transfected with a construct expressing wild-type SMYD2 (NCBI Reference Sequence: NP_064582.2). […]
For conducting the ICW assay 5000 SMYD2 overexpressing KYSE-150 cells/well were seeded in 96-well plates (SIGMA) and cultivated for 24 h. […] After 5 washes with PBS, the fluorescence in each well was measured on an Odyssey (LI-COR) scanner at 800 nm (p53K370me1 signal; 764 nm excitation) and 700 nm (DRAQS signal; 683 nm excitation). Fluorescence intensity was quantified and normalized to background and DRAQS signals. IC50 values were calculated by fitting the normalized inhibition data to a 4-parameter logistic equation (Minimum, Maximum, IC50, Hill; Y=Max+(Min−Max)/(1+(X/IC50)Hill)) for each tested compound. For IC50 determination C0 (=no inhibition) was defined as the signal measured for DMSO treated controls. […]

Assay [2] deals with T1, SMYD2. Kind of assay: Scintillation proximity assay (SPA) for detection of SMYD2 enzymatic inhibition. It counts as biochemical. Also noted: The SMYD2 full length enzyme was produced in-house by expression (with an N-terminal 6×His tag) in E. coli; 6xHis (N); made in house; host or cells: E. coli. The following applies: p53 Peptide substrate 1.0 μM, 3H-SAM 60 nM, 30 min at 22° C.; read-out: IC50 [mol/l] (SPA Assay). The text has this:
1.1 Scintillation Proximity Assay (SPA) for Detection of SMYD2 Enzymatic Inhibition
SMYD2 inhibitory activities of the compounds described in the present invention were quantified using a scintillation proximity assay (SPA) which measures methylation by the enzyme of the synthetic, biotinylated peptide Btn-Ahx-[…]−Amid×TFA (Biosyntan) derived from p53 and referred to from here on as “p53 Peptide”. The SMYD2 full length enzyme was produced in-house by expression (with an N-terminal 6×His tag) in E. coli and purification by affinity chromatography on a Ni-NTA Sepharose column followed by a size exclusion chromatography step on a Superdex 200 16/60 column (GE Healthcare).
In a typical assay 11 different concentrations of each compound (0.1 nM, 0.33 nM, 1.1 nM, 3.8 nM, 13 nM, 44 nM, 0.15 μM, 0.51 μM, 1.7 μM, 5.9 μM and 20 μM) were tested in duplicate within the same microtiter plate. To this end, 100-fold concentrated compound solutions (in DMSO) were previously prepared by serial dilution (1:3.4) of 2 mM stocks in a clear low volume 384-well source microtiter plate (Greiner Bio-One), from which 50 nl of compound solutions were transferred into a white low volume test microtiter plate from the same supplier. […] IC50 values were calculated by fitting the normalized inhibition data to a 4-parameter logistic equation using the “Screener” analysis software from Genedata.

T1 sequence (Q9NRG4 whole entry): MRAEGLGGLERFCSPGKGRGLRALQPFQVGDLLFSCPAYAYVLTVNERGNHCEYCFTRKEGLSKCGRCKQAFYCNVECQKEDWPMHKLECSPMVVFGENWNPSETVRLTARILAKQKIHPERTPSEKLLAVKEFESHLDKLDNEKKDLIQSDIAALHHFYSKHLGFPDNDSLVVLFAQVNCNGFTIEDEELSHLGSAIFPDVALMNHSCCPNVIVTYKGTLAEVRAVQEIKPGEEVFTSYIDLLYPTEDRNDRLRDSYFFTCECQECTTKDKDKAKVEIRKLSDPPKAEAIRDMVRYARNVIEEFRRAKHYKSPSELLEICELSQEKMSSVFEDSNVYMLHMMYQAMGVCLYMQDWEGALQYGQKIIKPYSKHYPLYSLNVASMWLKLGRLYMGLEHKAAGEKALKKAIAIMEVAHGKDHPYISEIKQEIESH

For the compound `N#C/N=C(/Nc1cccc(OC(F)F)c1)N1CC(N2CCC(N)C2=O)C(c2ccc(Cl)c(Cl)c2)=N1` (stereo not shown) [Example 2, 4-(3-amino-2-oxopyrrolidin-1-yl)-N′-cyano-3-(3,4-dichlorophenyl)-N-[3-(difluoromethoxy)phenyl]-4,5-dihydro-1H-pyrazole-1-carboximidamide], the IC50 amounted to 171 nM at SMYD2 [1] and 302 nM on SMYD2 [2].

For the compound `N#C/N=C(/Nc1cccc(OC(F)F)c1)N1CC(N2CCCC(N)C2=O)C(c2ccc(Cl)c(Cl)c2)=N1` (stereo not shown) [Example 1, 4-(3-amino-2-oxopiperidin-1-yl)-N′-cyano-3-(3 ,4-dichlorophenyl)-N-[3-(difluoromethoxy)phenyl]-4,5-dihydro-1H-pyrazole-1-carboximidamide], the IC50 at SMYD2 [1] came out at 100 nM; on SMYD2 [2] it was 31.6 nM.
